We go through two compounds from publication PMC11284787, “Ligand-Directed Labeling of the Adenosine A1 Receptor in Living Cells” (Journal of Medicinal Chemistry, 2024).

The test concerns T1, SNAP-hA1AR.
T1 construct: expressed in transfected cells; host or cells: HEK293T, transient transfection (FuGENE HD)
In words: Live-cell confocal microscopy of SNAP-hA1AR HEK293T cells. It is filed as cell-based, human. The note with it: for fluorescent labeling of SNAP-hA1AR at the plasma membrane: 125 nM 11 or 50 nM 12 (then MetTet-SulfoCy5) for 2 h; for labeling of SNAP-hA1AR after pretreatment with 10 μM DPCPX: 10 μM DPCPX pretreatment 30 min; for fluorescence intensity after 10 μM DPCPX added to prelabeled cells: prelabeled 2 h, then 10 μM DPCPX 1 h, P > 0.05. The text has this: Having investigated the molecular pharmacology of 11 and 12 in a series of in vitro assays, we sought to apply the LD probes for studying A1AR localization and dynamics in living cells. To this end, LD probes 11 and 12 were initially used in confocal microscopy studies to test their ability to label and allow visualization of the SNAP-hA1AR in living HEK293T cells (Figure 6). […] With both probes, the fluorescence labeling colocalized with SNAP-hA1AR labeled with AF488 (Figure 6A,C top frames).
Cells were labeled with membrane impermeable SNAP-AF488 for 30 min prior to treatment with 11 and 12 for 2 h, respectively, with the latter followed by the addition of 1 μM methyltetrazine (Met-Tet) SulfoCy5 for 5 min prior to the acquisition of the single equatorial images. […] For all the conditions, left-hand frames represent the SulfoCy5 channel (magenta), middle frames are the SNAP-hA1AR AF488 (green) channel, and right-hand frames represent merged images of both channels, with white indicating the overlap of magenta and green. (B, E) Fluorescence intensity plots (16-bit) were generated for both SulfoCy5 and AF488 channels by hand drawing the region of interest (ROI) in images obtained as indicated in (A) and (C) using ImageJ (FIJI). Data points represent membrane fluorescence signals measured from ROI drawn in each cell, and error bars represent mean ± standard deviation (SD). Images are representative of images obtained from three independent experiments from which 72 to 83 cells were analyzed. Scale bars are = 13 μm for (A) and 10 μm for (C). (D) Schematic representation of the biorthogonal IEDDA reaction between the TCO group (covalently attached to the hA1AR by ligand-directed chemistry) and SulfoCy5-conjugated methyltetrazine (MetTet-SulfoCy5). Following the click IEDDA reaction, the formation of the 4,5-dihydropyridazine cycloadduct increases the fluorescence intensity of the fluorophore conjugated to the tetrazine moiety. […]
using a Zeiss LSM880 confocal microscope as described in the confocal imaging […]
HEK293T cells were seeded in 8-well plates (Nunc Lab-Tek, Thermo Fischer Scientific), pre-coated with Poly-D-Lysine, at 20,000 cells/well in DMEM/10% FCS.
24 h post seeding, cells were transiently transfected with human SNAP-A1. Transient transfections were carried out following manufacturer’s protocol: used FuGENE HD at 3:1 ratio of reagent to cDNA with a total of 300 ng cDNA per well. Transfection solutions were made up in Gibco Opti-MEM (Thermo Fischer Scientific), incubated at RT for 5 min and added as 11 µL per well. Cells were incubated for additional 24 h at 37 OC, 5% CO2. On the day of the experiment medium was removed and the cells were labelled for 30 min at 37 °C with 0.2 µM SNAP-surface AF488 in SFM. After washing twice with SFM the cells were treated with or without 10 µM competitive A 1AR- […]
Following the incubation step, the ligand-directed probe under investigation (SulfoCy5 or PEG-TCO) (11 or 12) was added to the appropriate wells at the required concentrations and incubated for 2 h. After that time, cells were washed 4x with warm HBSS, followed by the addition of 300 µL warm HBSS and imaged. For click-chemistry reactions, after washing 4x with warm HBSS, cells pre-labelled with the trans-cyclooctene-conjugated 12 (PEG-TCO) at 50 nM were subsequently treated with 1 µM Methyl-TetrazineSulfoCy5 (Lumiprobe, Germany) for 5 min at RT in the dark. Cells were washed 2x with warm HBSS and imaged. When […]
1 h before imaging. […]
Live cell imaging was performed using either a Zeiss LSM 710 or LSM880 laser scanning confocal microscope fitted with a Zeiss C-Apochromat 40 × 1.2 NA water immersion objective. A 633 nm HeNe laser was used for the excitation of SulfoCy5 fluorophore and a 488/561/633 dichroic, and the emission was detected between 634 […]
and 755 nm. A 488 nm […] laser was used to excite SNAP-AF488 and the emission was detected between 493 and 586 nm. The pinhole diameter (1 Airy Unit; 1.1 μm […]

Consider `CCCCn1c(=O)c2[nH]c(C34CCC(C(=O)NCCNC(=O)CCNC(=O)c5ccc(OC(=O)CCC(=O)NCCOCCOCCNC(=O)O[C@H]6CC/C=C/CCC6)c(F)c5)(CC3)CC4)nc2n(CCCC)c1=O` [Compound 12, 4-((3-((2-(4-(1,3-Dibutyl-2,6-dioxo-2,3,6,7-tetrahydro-1H-purin-8-yl)bicyclo[2.2.2]octane-1-carboxamido)ethyl)amino)-3-oxopropyl)carbamoyl)-2-fluorophenyl (R,E)-1-(Cyclooct-4-en-1-yloxy)-1,12-dioxo-5,8-dioxa-2,11-diazapentadecan-15-oate], for which the “fluorescent labeling of SNAP-hA1AR at the plasma membrane” value is listed as “Clear fluorescent labeling”, the “labeling of SNAP-hA1AR after pretreatment with 10 μM DPCPX” value is on record as “prevented the labeling” and the “fluorescence intensity after 10 μM DPCPX added to prelabeled cells” value is given as “did not change their fluorescence intensities”.
The corresponding values for `CCCCn1c(=O)c2[nH]c(C34CCC(C(=O)NCCNC(=O)CCNC(=O)c5ccc(OC(=O)CCCCC[N+]6=C(/C=C/C=C/C=C7/N(C)c8ccc(S(=O)(=O)O)cc8C7(C)C)C(C)(C)c7cc(S(=O)(=O)[O-])ccc76)c(F)c5)(CC3)CC4)nc2n(CCCC)c1=O` [Compound 11, 1-(6-(4-((3-((2-(4-(1,3-Dibutyl-2,6-dioxo-2,3,6,7-tetrahydro-1H-purin-8-yl)bicyclo[2.2.2]octane-1-carboxamido)ethyl)amino)-3-oxopropyl)carbamoyl)-2-fluorophenoxy)-6-oxohexyl)-3,3-dimethyl-2-((1E,3E)-5-((E)-1,3,3-trimethyl-5-sulfoindolin-2-ylidene)penta-1,3-dien-1-yl)-3H-indol-1-ium-5-sulfonate] are “Clear fluorescent labeling”, “prevented the labeling” and “did not change their fluorescence intensities”.
